Assay results as given in paper PMC4548482 (Neuropharmacology, 2015).

How the values were obtained:
human α7 nAChRs [1] = biological target: T1, human α7 nAChRs (Homo sapiens, UniProt P36544); test: Two-electrode voltage-clamp recording, wild-type human α7 nAChRs expressed in Xenopus oocytes; format: cell-based; conditions: for Fold potentiation: Human α7, maximum fold potentiation of responses to an EC50 of acetylcholine (100 μM), mean ± SEM; for Desensitisation after receptor reactivation: acetylcholine co-applied with compound, period of 30 s; for Total net charge transfer relative to initial application of acetylcholine alone: measured during a 30 s application of compound in continued presence of acetylcholine (100 μM); for Effect on rate of desensitisation of acetylcholine-evoked responses: wild-type α7, acetylcholine 100 μM, pre- and co-application of PAM; for Imax: Wild-type α7, normalised to the maximum response to acetylcholine
T1 construct: expressed in transfected cells; host or cells: Xenopus laevis oocytes (cRNA injection)
T1 sequence (P36544 23-502): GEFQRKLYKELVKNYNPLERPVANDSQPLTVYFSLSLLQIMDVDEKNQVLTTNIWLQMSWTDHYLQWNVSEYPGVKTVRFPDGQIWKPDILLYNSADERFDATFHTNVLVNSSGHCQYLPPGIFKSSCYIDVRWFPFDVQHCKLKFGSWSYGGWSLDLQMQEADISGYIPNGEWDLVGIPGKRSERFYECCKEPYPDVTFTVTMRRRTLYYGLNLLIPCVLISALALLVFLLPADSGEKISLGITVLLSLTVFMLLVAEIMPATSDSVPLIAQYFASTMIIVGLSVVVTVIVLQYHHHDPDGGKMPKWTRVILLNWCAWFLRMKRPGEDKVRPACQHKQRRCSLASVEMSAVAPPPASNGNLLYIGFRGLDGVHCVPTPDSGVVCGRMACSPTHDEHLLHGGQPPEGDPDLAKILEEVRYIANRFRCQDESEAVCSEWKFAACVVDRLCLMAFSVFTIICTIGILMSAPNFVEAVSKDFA
Method: All plasmid constructs used in this study have been described previously.
(§1) Oocytes were isolated from adult female Xenopus laevis following procedures that have been approved by UCL's Biological Services Management Group and the UK Home Office. […] Heterologous expression was achieved by injection of wild-type or mutated α7 cRNA (6–12 ng) into oocyte cytoplasm. Oocytes were injected in a volume of 20–30 nl using a Drummond variable volume microinjector. […] Experiments were performed on oocytes after 3–5 days of incubation.

human α4β2 nAChRs = biological target: T2, human α4β2 nAChRs (Homo sapiens, UniProt P17787+P43681); test: Two-electrode voltage-clamp recording, human α4β2 nAChRs in Xenopus oocytes; format: cell-based; parameters: concentration or dose not given beside the values; conditions: inhibition of agonist-evoked responses, mean ± SEM
T2 construct: expressed in transfected cells; host or cells: Xenopus laevis oocytes
T2 sequence (P43681 29-627 limits assumed): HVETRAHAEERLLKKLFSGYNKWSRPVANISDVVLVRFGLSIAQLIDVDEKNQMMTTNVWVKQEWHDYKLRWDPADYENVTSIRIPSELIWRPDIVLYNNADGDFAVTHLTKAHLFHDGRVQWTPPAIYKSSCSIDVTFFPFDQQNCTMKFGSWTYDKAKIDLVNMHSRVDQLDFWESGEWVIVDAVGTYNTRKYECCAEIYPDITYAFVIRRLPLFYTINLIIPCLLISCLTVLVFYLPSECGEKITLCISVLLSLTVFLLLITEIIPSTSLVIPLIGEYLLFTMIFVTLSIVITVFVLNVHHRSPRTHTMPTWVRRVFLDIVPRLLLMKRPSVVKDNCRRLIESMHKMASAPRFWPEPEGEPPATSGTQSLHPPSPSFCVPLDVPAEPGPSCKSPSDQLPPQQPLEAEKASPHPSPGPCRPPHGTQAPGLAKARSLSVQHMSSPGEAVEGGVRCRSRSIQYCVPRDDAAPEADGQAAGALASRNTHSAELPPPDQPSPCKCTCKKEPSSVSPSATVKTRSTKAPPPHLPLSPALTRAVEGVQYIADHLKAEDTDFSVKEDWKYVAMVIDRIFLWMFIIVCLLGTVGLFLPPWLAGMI
T2 sequence (P17787 26-502): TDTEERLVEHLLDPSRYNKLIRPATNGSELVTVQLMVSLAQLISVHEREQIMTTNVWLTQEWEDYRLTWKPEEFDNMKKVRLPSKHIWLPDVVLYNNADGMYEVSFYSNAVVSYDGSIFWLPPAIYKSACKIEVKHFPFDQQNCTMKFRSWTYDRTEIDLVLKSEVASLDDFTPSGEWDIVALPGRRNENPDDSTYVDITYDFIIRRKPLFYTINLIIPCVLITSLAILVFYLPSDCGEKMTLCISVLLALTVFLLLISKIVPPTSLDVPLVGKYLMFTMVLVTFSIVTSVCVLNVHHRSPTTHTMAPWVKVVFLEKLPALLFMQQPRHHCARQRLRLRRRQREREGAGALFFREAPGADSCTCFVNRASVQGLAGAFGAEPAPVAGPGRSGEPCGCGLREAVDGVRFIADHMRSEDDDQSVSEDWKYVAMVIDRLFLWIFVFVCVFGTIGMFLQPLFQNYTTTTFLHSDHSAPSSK
Excerpt: (§2) All plasmid constructs used in this study have been described previously. These include plasmids containing cDNAs encoding human α3, α4, α7, β2 and β4 nAChR subunits in pSP64GL ([Broadbent et al., 2006]); rat α7 nAChR subunit in pcDNA3 ([Cooper and Millar, 1997]); α7/5-HT3A subunit chimera (containing the rat α7 N-terminal domain and mouse 5-HT3A transmembrane and C-terminal domain) in pcDNA3 ([Cooper and Millar, 1998]); human RIC-3 in pRK5 ([Lansdell et al., 2005]) and mouse 5-HT3A ([Maricq et al., 1991]) in pRK5.
(§3) Oocytes were isolated from adult female Xenopus laevis following procedures that have been approved by UCL's Biological Services Management Group and the UK Home Office. Oocytes were defolliculated as described previously ([Young et al., 2007]) by treatment with collagenase (2 mg/ml; Worthington Biochemicals, Freehold, NJ) in calcium-free Barth's solution containing 88 mM NaCl, 2.4 mM NaHCO3, 1 mM KCl, 0.82 mM MgSO4, and 15 mM Tris, pH 7.5. Heterologous expression was achieved by injection of wild-type or mutated α7 cRNA (6–12 ng) into oocyte cytoplasm. Oocytes were injected in a volume of 20–30 nl using a Drummond variable volume microinjector. After injection, oocytes were incubated at 18 °C in a calcium-containing Barth's solution (composition, as above, but with 0.77 mM CaCl2) supplemented with antibiotics (100 units/ml penicillin, 100 μg/ml streptomycin, 4 μg/ml kanamycin, and 50 μg/ml tetracycline). Experiments were performed on oocytes after 3–5 days of incubation. […] Two-electrode voltage-clamp recordings were performed (with the oocyte membrane potential held at −60 mV), as described previously ([Gill et al., 2012; Young et al., 2007]).

human α3β4 nAChRs = biological target: T3, human α3β4 nAChRs (Homo sapiens, UniProt P30926+P32297); test: Two-electrode voltage-clamp recording, human α3β4 nAChRs in Xenopus oocytes; format: cell-based; parameters: concentration or dose not given beside the values; conditions: inhibition of agonist-evoked responses, mean ± SEM
T3 construct: expressed in transfected cells; host or cells: Xenopus laevis oocytes
T3 sequence (P32297 32-505): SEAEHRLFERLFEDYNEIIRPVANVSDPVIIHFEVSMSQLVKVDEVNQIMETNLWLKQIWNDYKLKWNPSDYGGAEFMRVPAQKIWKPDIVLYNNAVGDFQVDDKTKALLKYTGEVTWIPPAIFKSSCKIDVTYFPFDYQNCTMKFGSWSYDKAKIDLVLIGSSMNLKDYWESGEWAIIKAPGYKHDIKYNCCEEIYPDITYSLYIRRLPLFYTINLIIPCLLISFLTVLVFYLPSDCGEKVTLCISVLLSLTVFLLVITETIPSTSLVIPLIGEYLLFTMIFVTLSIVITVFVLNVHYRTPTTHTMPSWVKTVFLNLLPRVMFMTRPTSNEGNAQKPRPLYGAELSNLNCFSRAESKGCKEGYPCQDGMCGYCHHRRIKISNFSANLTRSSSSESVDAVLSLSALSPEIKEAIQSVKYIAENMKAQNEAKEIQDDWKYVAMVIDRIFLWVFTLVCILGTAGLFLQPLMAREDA
T3 sequence (P30926 22-498): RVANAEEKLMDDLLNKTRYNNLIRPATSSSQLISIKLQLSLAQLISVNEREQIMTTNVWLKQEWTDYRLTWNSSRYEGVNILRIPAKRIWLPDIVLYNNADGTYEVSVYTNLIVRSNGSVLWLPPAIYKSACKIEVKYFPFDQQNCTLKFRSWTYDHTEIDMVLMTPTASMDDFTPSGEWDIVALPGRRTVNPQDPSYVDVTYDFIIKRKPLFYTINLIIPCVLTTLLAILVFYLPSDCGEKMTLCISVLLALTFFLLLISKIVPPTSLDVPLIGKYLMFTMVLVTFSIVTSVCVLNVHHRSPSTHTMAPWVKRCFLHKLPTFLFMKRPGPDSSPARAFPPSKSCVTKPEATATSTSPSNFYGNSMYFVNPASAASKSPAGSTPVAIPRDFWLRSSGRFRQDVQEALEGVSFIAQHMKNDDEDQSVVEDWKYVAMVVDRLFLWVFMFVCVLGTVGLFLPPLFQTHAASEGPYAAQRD
Excerpt: as §2, §3

rat α7 nAChRs = biological target: T4, rat α7 nAChRs (Rattus norvegicus, UniProt Q05941); test: Two-electrode voltage-clamp recording, rat α7 nAChRs in Xenopus oocytes; format: cell-based; conditions: mean ± SEM
T4 construct: expressed in transfected cells; host or cells: Xenopus laevis oocytes
T4 sequence (Q05941 23-502): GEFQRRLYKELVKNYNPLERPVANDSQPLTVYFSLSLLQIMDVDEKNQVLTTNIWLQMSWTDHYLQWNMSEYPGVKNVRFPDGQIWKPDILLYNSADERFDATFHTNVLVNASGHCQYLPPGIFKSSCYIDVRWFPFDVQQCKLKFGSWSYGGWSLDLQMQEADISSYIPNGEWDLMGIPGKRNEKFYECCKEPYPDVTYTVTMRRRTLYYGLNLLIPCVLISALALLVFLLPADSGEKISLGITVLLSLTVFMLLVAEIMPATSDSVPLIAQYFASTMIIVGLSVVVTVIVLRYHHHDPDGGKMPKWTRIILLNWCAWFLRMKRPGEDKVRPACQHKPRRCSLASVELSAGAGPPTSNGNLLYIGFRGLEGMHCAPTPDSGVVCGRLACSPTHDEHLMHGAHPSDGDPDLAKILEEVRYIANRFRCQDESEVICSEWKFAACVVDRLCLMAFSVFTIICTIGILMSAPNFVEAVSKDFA
Excerpt: as §2, §3

mouse 5-HT3A = biological target: T5, mouse 5-HT3A (Mus musculus, UniProt P23979); test: Two-electrode voltage-clamp recording, mouse 5-HT3ARs in Xenopus oocytes; format: cell-based; parameters: concentration or dose not given beside the values; conditions: inhibition of agonist-evoked responses, mean ± SEM
T5 construct: expressed in transfected cells; host or cells: Xenopus laevis oocytes
T5 sequence (P23979 24-489): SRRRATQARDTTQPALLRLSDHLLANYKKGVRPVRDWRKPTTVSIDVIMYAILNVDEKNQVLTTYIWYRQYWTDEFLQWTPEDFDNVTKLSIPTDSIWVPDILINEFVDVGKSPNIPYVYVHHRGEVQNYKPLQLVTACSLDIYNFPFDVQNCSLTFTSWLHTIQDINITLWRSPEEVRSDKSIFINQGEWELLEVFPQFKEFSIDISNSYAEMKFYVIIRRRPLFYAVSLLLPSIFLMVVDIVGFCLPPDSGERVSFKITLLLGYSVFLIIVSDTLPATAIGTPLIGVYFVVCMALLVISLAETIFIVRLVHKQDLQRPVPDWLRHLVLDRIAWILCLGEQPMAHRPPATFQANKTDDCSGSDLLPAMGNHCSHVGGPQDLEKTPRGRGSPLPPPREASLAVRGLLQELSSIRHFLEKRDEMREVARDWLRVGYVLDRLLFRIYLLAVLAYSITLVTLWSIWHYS
Excerpt: as §2, §3

[2] = biological target: T6, α7/5-HT3A subunit chimera (rat α7 N-terminal domain, mouse 5-HT3A transmembrane and C-terminal domain) (UniProt P23979+Q05941, M226I/T225I); test: Two-electrode voltage-clamp recording, α7/5-HT3A subunit chimera in Xenopus oocytes; format: cell-based; parameters: concentration or dose not given beside the values; conditions: α7/5-HT3A chimera; inhibition of agonist-evoked responses; mean ± SEM
T6 construct: containing the extracellular/N-terminal domain of the rat α7 nAChR subunit; the transmembrane/C-terminal domain of the mouse 5-HT3A subunit; expressed in transfected cells; host or cells: Xenopus laevis oocytes
T6 sequence (Q05941+P23979 fused Q05941:T225I/Q05941:M226I): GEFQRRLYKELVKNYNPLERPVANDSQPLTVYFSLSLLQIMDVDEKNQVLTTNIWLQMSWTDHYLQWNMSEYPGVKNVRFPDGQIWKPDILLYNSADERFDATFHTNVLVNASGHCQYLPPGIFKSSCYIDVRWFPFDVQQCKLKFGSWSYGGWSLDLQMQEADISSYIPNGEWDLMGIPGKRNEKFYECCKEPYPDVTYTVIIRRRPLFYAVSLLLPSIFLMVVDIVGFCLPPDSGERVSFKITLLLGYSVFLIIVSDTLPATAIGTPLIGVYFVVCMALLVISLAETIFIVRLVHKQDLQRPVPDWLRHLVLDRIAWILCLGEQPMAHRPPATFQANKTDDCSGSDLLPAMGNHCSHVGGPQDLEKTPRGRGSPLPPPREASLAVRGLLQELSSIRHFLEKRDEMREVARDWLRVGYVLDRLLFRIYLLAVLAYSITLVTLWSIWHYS
Excerpt: as §2, §3

α7 M260L nAChRs = biological target: T7, α7 M260L nAChRs (Homo sapiens, UniProt P36544, M283L); test: Two-electrode voltage-clamp recording, human α7 nAChRs containing the M260L mutation in Xenopus oocytes; format: cell-based; conditions: for Fold potentiation (maximum peak response compared to acetylcholine alone): acetylcholine 100 μM, pre- and co-application of modulator (10 μM); for Agonist effect on M260L receptors: compound applied alone; for Imax: normalised to the maximum response to acetylcholine
T7 construct: expressed in transfected cells; host or cells: Xenopus laevis oocytes (cRNA injection)
T7 sequence (P36544 23-502 M283L): as the sequence (P36544 23-502) above, with M261L counted along it
Method: (§4) Site-directed mutagenesis was performed on human nAChR α7 subunit cDNA in plasmid pSP64GL using the QuikChange mutagenesis kit (Stratagene) and verified by nucleotide sequencing. Plasmid pSP64GL containing wild-type or mutated human α7 cDNA was linearized with BamHI and purified with QIAQuik PCR purification kit (Qiagen). In vitro synthesis of cRNA was performed using mMessage mMachine SP6 transcription kit (Life Technologies).
as §1

human α7 nAChRs [3] = biological target: T1, human α7 nAChRs; format: binding; conditions: [3H]-α-bungarotoxin 1 nM; tsA201 cells
α7 L247T nAChRs = biological target: T8, α7 L247T nAChRs (Homo sapiens, UniProt P36544, L270T); test: Two-electrode voltage-clamp recording, human α7 nAChRs containing the L247T mutation in Xenopus oocytes; format: cell-based; conditions: α7 L247T; for nH (Hill coefficient) / EC50: mean ± SEM; for EC50: read-out: EC50 (agonist); for Imax: normalised to the maximum response to acetylcholine
T8 construct: expressed in transfected cells; host or cells: Xenopus laevis oocytes (cRNA injection)
T8 sequence (P36544 23-502 L270T): as the sequence (P36544 23-502) above, with L248T counted along it
Method: as §4, §1

[4] = wild-type α7 desensitised by continued acetylcholine (100 μM), compound 10 μM
[5] = M260L α7, type I PAM 10 μM pre-applied for 10 s then co-applied, n = 3

Compound	Fold potentiation (human α7 nAChRs [1])	Desensitisation after receptor reactivation (human α7 nAChRs [1])	Total net charge transfer relative to initial application of acetylcholine alone (human α7 nAChRs [1])	Effect on rate of desensitisation of acetylcholine-evoked responses (human α7 nAChRs [1])	Recovery from desensitisation (reactivation of desensitised receptors) (human α7 nAChRs [1]; [4])	% Inhibition (human α4β2 nAChRs)	% Inhibition (human α3β4 nAChRs)	Fold potentiation (rat α7 nAChRs)	% Inhibition (mouse 5-HT3A)	% Inhibition [2]	Fold potentiation (maximum peak response compared to acetylcholine alone) (α7 M260L nAChRs; M260L α7)	Agonist effect on M260L receptors (α7 M260L nAChRs)	Displacement of [3H]-α-bungarotoxin binding (human α7 nAChRs [3])	melting point	Imax (human α7 nAChRs [1])	nH (Hill coefficient) (α7 L247T nAChRs)	EC50 (α7 L247T nAChRs)	Imax (α7 L247T nAChRs)	Imax (α7 M260L nAChRs; α7 M260L)	further results
NS(=O)(=O)c1ccc(-n2nc(-c3ccc(Br)cc3)nc2CCc2ccccc2)cc1 [TBS-556, 4-(3-(4-bromophenyl)-5-phenethyl-1H-1,2,4-triazol-1-yl)benzenesulfonamide]	4.7 ± 0.2 fold	no desensitisation was observed	27 ± 6 fold	intermediate between those of classical type I and type II PAMs	caused recovery from desensitisation	3.2 ± 0.9%	16 ± 13%	4.3 ± 0.6 fold	10 ± 1.9%	1.0 ± 1.0%	6.6 ± 1.0 fold	converted into agonists	no significant displacement	184 to 186 °C	–	–	–	–	–	Response on reactivation of desensitised receptors as % of the response to 100 μM acetylcholine (human α7 nAChRs [1]; [4]): 57.3 ± 10.1%
COc1ccc(-c2nc(-c3ccc(Br)cc3)nn2-c2ccc(S(N)(=O)=O)cc2)cc1 [TBS-346, 4-(3-(4-bromophenyl)-5-(4-methoxyphenyl)-1H-1,2,4-triazol-1-yl)benzenesulfonamide]	10.5 ± 2.5 fold	–	–	minimal changes to desensitisation	no detectable responses	23.1 ± 5.7%	68.4 ± 3.0%	8.7 ± 5.3 fold	30.8 ± 15.5%	13.4 ± 7.7%	2.8 ± 0.6 fold	no agonist effect	no significant displacement	290 to 294 °C	0.0 ± 0.0	1.7 ± 0.3	100 ± 40 nM	0.9 ± 0.1	0.0 ± 0.0	Block of agonist responses to TBS-516 (10 μM) (α7 M260L nAChRs; [5]): 83.4 ± 4.1%; Block of agonist responses to TQS (10 μM) (α7 M260L nAChRs; [5]): 95.7 ± 1.1%
NS(=O)(=O)c1ccc(-n2nc(-c3ccc(Br)cc3)nc2Cc2ccccc2)cc1 [TBS-516, 4-(5-benzyl-3-(4-bromophenyl)-1H-1,2,4-triazol-1-yl)benzenesulfonamide]	11.3 ± 3.1 fold	no desensitisation was observed	250 ± 71 fold	dramatic slowing of desensitisation	caused recovery from desensitisation	1.7 ± 0.4%	31.1 ± 0.6%	3.6 ± 1.0 fold	10.4 ± 7.5%	9.2 ± 12.8%	8.0 ± 3.1 fold	converted into agonists	no significant displacement	203 to 205 °C	0.0 ± 0.0	2.5 ± 0.3	200 ± 40 nM	1.1 ± 0.1	3.7 ± 0.6	Response on reactivation of desensitised receptors relative to response to 100 μM acetylcholine (human α7 nAChRs [1]; [4]): 3.2 ± 0.9 fold; nH (Hill coefficient) (α7 M260L nAChRs; α7 M260L, mean ± SEM): 1.8 ± 0.3; EC50 (α7 M260L nAChRs; α7 M260L, mean ± SEM, read-out: EC50 (agonist)): 8900 ± 2500 nM
